Data: patent publication US6696431B2, “26,27-homologated-20-EPI-2-alkylidene-19-nor-vitamin D compounds” (Wisconsin Alumni Research Foundation, priority 1997, dated 2004)
Marks after values point to notes of the source that are not given here.

Tests used:
[1] = tested on: Vitamin D-Deficient Rats on a Low-Calcium Diet; assay: Bone calcium mobilization (serum Ca) in vitamin D-deficient rats on a low-calcium diet (Tables 4, 6); type: in vivo, rat
[2] = tested on: vitamin D-deficient rats; assay: Intestinal calcium transport after a single dose (Table 2); type: in vivo, rat; details: single intrajugular dose 650 pmol, 24 h later, mean±SEM
Experimental: (§1) Male Holtzman strain weanling rats were obtained from the Sprague Dawley Co. (Indianapolis, Ind.) and fed the 0.47% calcium, 0.3% phosphorus diet described by Suda et al. (J. Nutr. 100, 1049-1052, 1970) for 1 week and then fed the same diet containing 0.02% calcium and 0.3% phosphorus for 2 additional weeks. At this point, they received a single intrajugular injection of the indicated dose dissolved in 0.1 ml of 95% propylene glycol/5% ethanol. Twenty-four hours later they were sacrificed and intestinal calcium transport and serum calcium were determined as described in Table 1. The dose of the compounds was 650 pmol and there were 5 animals per group. The data are expressed as mean±SEM.

[3] = tested on: vitamin D-deficient rats; assay: Serum calcium (bone calcium mobilization) after a single dose (Table 2); type: in vivo, rat; details: single intrajugular dose 650 pmol, 24 h later, mean±SEM
Experimental: as §1

[4] = tested on: HL-60 cells; assay: Differentiation of HL-60 promyelocytes to monocytes (NBT reduction); type: cell-based; details: for HL-60 Differentiation ED50: concentration inducing 50% maturation, NBT reduction; for HL-60 Differentiation Activity ratio: ratio of analog ED50 to ED50 for 1α,25-(OH)2D3; for induction of differentiation of HL-60 cells to the monocyte, in words: FIG. 2
[5] = tested on: vitamin D-deficient rats; assay: Intestinal calcium transport (everted sac), chronic doses for 7 days (Table 1); type: in vivo, rat; details: for Intestinal Calcium Transport (S/M): intraperitoneal, 24 h after last dose, mean±SEM; for intestinal calcium transport, in words: chronic 7 days, 130 or 260 pmol/day, 1,25-(OH)2D3 at 260 pmol/day only
Experimental: (§2) Male weanling rats were obtained from Sprague Dawley Co. (Indianapolis, Ind.) and fed a 0.47% calcium, 0.3% phosphorus vitamin D-deficient diet for 1 week and then given the same diet containing 0.02% calcium, 0.3% phosphorus for 2 weeks. During the last week they were given the indicated dose of compound by intraperitoneal injection in 0.1 ml 95% propylene glycol and 5% ethanol each day for 7 days. The control animals received only the 0.1 ml of 95% propylene glycol, 5% ethanol. Twenty-four hours after the last dose, the rats were sacrificed and intestinal calcium transport was determined by everted sac technique as previously described and serum calcium determined by atomic absorption spectrometry on a model 3110 Perkin Elmer instrument (Norwalk, Conn.). There were 5 rats per group and the values represent mean±SEM.

[6] = tested on: Vitamin D-Deficient Rats on a Low-Calcium Diet; assay: Intestinal calcium transport in vitamin D-deficient rats on a low-calcium diet (Tables 4, 6); type: in vivo, rat
[7] = tested on: vitamin D-deficient rats; assay: Serum calcium (bone calcium mobilization), chronic doses for 7 days (Table 1); type: in vivo, rat; details: for Serum Calcium: intraperitoneal, 24 h after last dose, mean±SEM; for bone calcium mobilization, in words: 130 and 260 pmol/day
Experimental: as §2

[8] = biological target: T1, porcine intestinal vitamin D receptor (Sus scrofa, UniProt A3RGC1); assay: Competitive binding to the porcine intestinal vitamin D receptor; details: for EC50: concentration for 50% displacement of radiolabeled 1α,25-(OH)2D3, read-out: VDR Binding ED50; for VDR Binding ratio: ratio of analog ED50 to ED50 for 1α,25-(OH)2D3
T1 construct: from tissue; host or cells: porcine intestine
T1 sequence (A3RGC1 1-427): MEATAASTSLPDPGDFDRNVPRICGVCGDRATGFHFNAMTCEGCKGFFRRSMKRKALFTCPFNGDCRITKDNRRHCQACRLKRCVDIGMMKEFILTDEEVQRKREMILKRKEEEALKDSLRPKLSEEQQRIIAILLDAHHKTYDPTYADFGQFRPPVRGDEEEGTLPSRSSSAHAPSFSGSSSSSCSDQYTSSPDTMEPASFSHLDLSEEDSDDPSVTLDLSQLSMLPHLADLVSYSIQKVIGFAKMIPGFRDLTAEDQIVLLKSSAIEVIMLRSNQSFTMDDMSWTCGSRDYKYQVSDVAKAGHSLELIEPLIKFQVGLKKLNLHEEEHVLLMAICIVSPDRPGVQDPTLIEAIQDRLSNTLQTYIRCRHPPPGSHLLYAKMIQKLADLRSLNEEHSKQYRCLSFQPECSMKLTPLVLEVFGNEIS

[9] = 260 pmol daily for 7 days i.p., Table 4 and Table 6 panel 1
[10] = 260 pmol daily for 7 days i.p., Table 6 panel 2
[11] = 65 pmol daily for 7 days i.p., Table 6 panel 2
[12] = 15 pmol daily for 7 days i.p., Table 4 and Table 6 panel 1
[13] = 32 pmol daily for 7 days i.p., Table 4 and Table 6 panel 1

Row | EC50 [8] [nM] | VDR Binding ratio [8] | SMILES | Serum Ca (mean ± SEM) [1, 10] | Intestinal Calcium Transport (S/M) [2] [S/M] | Serum Calcium [3] [mg/100 ml] | Intestinal Calcium Transport (S/M) ([5]; 260 pmol/day for 7 days) | intestinal calcium transport, in words [5] | Ca Transport S/M (mean ± SEM) [6, 10] | Serum Calcium ([7]; 130 pmol/day for 7 days) [mg/100 ml] | Serum Calcium ([7]; 260 pmol/day for 7 days) [mg/100 ml] | HL-60 Differentiation ED50 [4] [nM] | HL-60 Differentiation Activity ratio [4] | also measured
1 | 29 | 33 | C=C1[C@H](O)CC(=C/C=C2\CCC[C@@]3(C)C2CCC3[C@@H](C)CCC=C2CCCC2)C[C@H]1O (stereo partly drawn) [Compound 45, 20(S)-26,27-dimethylene-1α-hydroxy-2-methylene-24-dehydro-19-norvitamin D3] | 10.8 ± 0.3^d^^2 | – | – | – | – | 4.3 ± 0.5^d^^2 S/M | – | – | 4.1 | 1.0 | Serum Ca (mean ± SEM) [1, 11]: 5.7 ± 0.1^d^^1; Ca Transport S/M (mean ± SEM) [6, 11]: 5.5 ± 0.8^d^^1 S/M
2 | 15 | 17 | C=C1[C@H](O)CC(=C/C=C2\CCC[C@@]3(C)C2CCC3[C@@H](C)CCCC2(OC)CCCC2)C[C@H]1O (stereo partly drawn) [Compound 46, 20(S)-26,27-dimethylene-1α-hydroxy-25-methoxy-2-methylene-19-norvitamin D3] | 10.8 ± 0.3^e^^2 | – | – | – | – | 4.3 ± 0.5^e^^2 S/M | – | – | 4.3 | 1.1 | Serum Ca (mean ± SEM) [1, 11]: 5.7 ± 0.1^e^^1; Ca Transport S/M (mean ± SEM) [6, 11]: 5.5 ± 0.8^e^^1 S/M
3 | 2.7 | 3.1 | C=C1[C@H](O)CC(=C/C=C2\CCC[C@@]3(C)C2CCC3[C@@H](C)CCCC2(O)CCCC2)C[C@H]1O (stereo partly drawn) [Compound 47, 20(S)-1α,25-dihydroxy-26,27-dimethylene-2-methylene-19-norvitamin D3] | – | – | – | – | – | – | – | – | 0.036 | 0.01 | Serum Ca (mean ± SEM) [1, 12]: 5.4 ± 0.2^d^^1; Serum Ca (mean ± SEM) [1, 13]: 6.4 ± 0.2^d^^2; Ca Transport S/M (mean ± SEM) [6, 12]: 5.6 ± 0.6^d^^1 S/M; Ca Transport S/M (mean ± SEM) [6, 13]: 5.3 ± 0.5^d^^2 S/M

The remaining lines, values behind:

Row | SMILES | EC50 [8] [nM] | VDR Binding ratio [8] | Serum Ca (mean ± SEM) [1, 10] | Intestinal Calcium Transport (S/M) [2] [S/M] | Serum Calcium [3] [mg/100 ml] | Intestinal Calcium Transport (S/M) ([5]; 260 pmol/day for 7 days) | intestinal calcium transport, in words [5] | Ca Transport S/M (mean ± SEM) [6, 10] | Serum Calcium ([7]; 130 pmol/day for 7 days) [mg/100 ml] | Serum Calcium ([7]; 260 pmol/day for 7 days) [mg/100 ml] | HL-60 Differentiation ED50 [4] [nM] | HL-60 Differentiation Activity ratio [4] | also measured
4 | C=C1/C(=C\C=C2/CCC[C@]3(C)[C@@H]([C@H](C)CCCC(C)(C)O)CC[C@@H]23)C[C@@H](O)C[C@@H]1O [1,25-(OH)2D3, 1α,25-dihydroxyvitamin D3, reference compound] | – | – | 6.3 ± 0.2^c | 5.8 ± 0.3 | 5.7 ± 0.2 | 6.2 ± 0.4 | expected elevation | 5.0 ± 0.4^c S/M | 13.8 | 7.2 ± 0.5 | – | – | Serum Ca (mean ± SEM) [1, 9]: 5.6 ± 0.2^c; HL-60 Differentiation ED50 ([4]; listed as 1α,25-(OH)2D3): 4 nM; Ca Transport S/M (mean ± SEM) [6, 9]: 7.2 ± 0.6^c S/M
5 | C=C1[C@H](O)CC(=C/C=C2\CCC[C@@]3(C)C2CCC3[C@@H](C)CCCC(O)(CC)CC)C[C@H]1O (stereo partly drawn) [Compound 35, 20(S)-1α,25-Dihydroxy-2-methylene-26,27-dihomo-19-norvitamin D3] | 4.3 | 4.9 | – | – | – | – | – | – | – | – | – | 0.01 | Serum Ca (mean ± SEM) [1, 12]: 5.3 ± 0.1^d^^1; Serum Ca (mean ± SEM) [1, 13]: 7.3 ± 0.4^d^^2; Ca Transport S/M (mean ± SEM) [6, 12]: 4.0 ± 0.4^d^^1 S/M; Ca Transport S/M (mean ± SEM) [6, 13]: 8.2 ± 0.6^d^^2 S/M
6 | C=C1[C@H](O)CC(=C/C=C2\CCC[C@]3(C)[C@@H]([C@@H](C)CCCC(C)(C)O)CC[C@@H]23)C[C@H]1O [2-Methylene-19-Nor-20(S)-1,25-(OH)2D3, 20(S)-1α,25-dihydroxy-2-methylene-19-nor-vitamin D3] | – | – | – | 5.5 ± 0.6 | 8.0 ± 0.1 | 4.6 ± 0.7 | no significant change | – | 13.8 ± 0.5 | 14.4 ± 0.6 | – | – | induction of differentiation of HL-60 cells to the monocyte, in words [4]: extremely potent; Intestinal Calcium Transport (S/M) ([5]; 130 pmol/day for 7 days): 5.7 ± 0.8 S/M; Serum Calcium ([7]; 260 pmol/day for 7 days, listed as 2-methylene-19-nor-20(S)-1,25-(OH)2D3): 14 mg/100 ml; bone calcium mobilization, in words ([7]; chronic 7 days): most potent compound tested
7 | C=C1[C@H](O)CC(=C/C=C2\CCC[C@]3(C)[C@@H]([C@H](C)CCCC(C)(C)O)CC[C@@H]23)C[C@H]1O [2-Methylene-19-Nor-1,25-(OH)2D3, 1α,25-dihydroxy-2-methylene-19-nor-vitamin D3] | – | – | – | 5.3 ± 0.5 | 6.4 ± 0.1 | 4.9 ± 0.6 | no intestinal calcium transport activity | – | 9.9 ± 0.2 | 9.6 ± 0.3 | – | – | induction of differentiation of HL-60 cells to the monocyte, in words [4]: activity similar to 1,25-(OH)2D3; Intestinal Calcium Transport (S/M) ([5]; 130 pmol/day for 7 days): 5.3 ± 0.4 S/M; bone calcium mobilization, in words ([7]; chronic 7 days): extremely strong bone calcium mobilization; bone calcium mobilization activity relative to 1,25-(OH)2D3 (native hormone) ([7]; chronic 7 days, for the 20(S) compound at 130 pmol/day): 10-100 times
